Experimental data published in US20230355678A1, “METHODS FOR IMPROVING T CELL EFFICACY” (IMMATICS US, INC., priority 2022, published 2023).
Entries after “also recorded” stand apart in the source; their conditions may differ. Read-outs that look alike come from different tables or passages of the source.

Tests used:
transduced T cells [1] = experiment: Fold expansion and manufacturing metrics of T cell products; assay type: cell-based; parameters: fold expansion: unit of the concentration uncertain; settings: for fold expansion of T cell products: vs untreated control; for fold expansion: FIG. 2B
Procedure: (§1) (DMSO low concentration=low volume=0.00001%; vehicle control for Panobinostat at low concentration (1 nM); DMSO high concentration=high volume=1.5%; vehicle control for valproic acid at high concentration (1.5 mM); all except Na butyrate (water) were dissolved in DMSO)
(§2) On Day 1, the activated CD4/CD8-selected cells were transduced with Lentiviral vectors expressing a target-specific exogenous TCR. On Day 2, the culture media were removed and the transduced cells were fed with fresh media in the absence of Panobinostat, SAHA+IL-21, and AKTi VIII and in the presence of cytokines, for cell expansion. On Day 7-Day 10, cells were harvested and cryopreserved for harvest metrics, phenotypic analysis, and functional studies including Incucyte tumor serial killing assay, cytokine production, and exhaustion analysis. To test the effects of TKi, e.g., dasatinib, on T cell products, dasatinib was added on Day 2 (5 nM) and Day 5 (10 nM) during feeding and expansion.
(§3) On Day 0, thawed and rested CD4/CD8-selected cells were activated in the presence of anti-CD3/anti-CD28 antibodies. On Day 1, the activated CD4/CD8-selected cells were transduced with Lentiviral vectors expressing a target-specific exogenous TCR and exogenous CD8 molecules. On Day 2, the culture media were removed and the transduced cells were fed with fresh media containing cytokines for cell expansion. Dasatinib was added on Day 2 or on Day 5. On Day 7-Day 10, cells were harvested and cryopreserved for harvest metrics, phenotypic analysis, and functional studies including Incucyte tumor serial killing assay, cytokine production, and exhaustion analysis.

transduced T cells [2] = experiment: Transduction efficiency by flow cytometry gated on CD3+CD8+ TCR+ cells; assay type: cell-based; parameters: % CD8+ T cells / % CD8+ TCR+ cells (transduction efficiency): unit of the concentration uncertain; settings: for % CD8+ TCR+ T cells (transduction efficiency) / total number of T cell products with CD8+ TCR+ T cells: vs untreated control; for % CD8+ T cells / % CD8+ TCR+ cells (transduction efficiency): FIG. 3
Procedure: Transduction efficiency of transduced T cells treated with different HDACi were determined by flow cytometry gated on CD3+CD8+ TCR+ cells.
as §2, §3

transduced T cells [3] = experiment: Memory T cell phenotype by flow cytometry; assay type: cell-based; settings: for Ranking of T cell products from the most Tnaive and the least TemRA to the least Tnaive and the most TemRA: comparative study, FIG. 25A-B; for CD28+CD62L+ cells (Tcm-like cells): FIG. 5; for % Tnaïve cells / TemRA cells: vs other treatments and control (no HDACi), FIG. 4
Procedure: Phenotypes of transduced T cells treated with different HDACi were determined by flow cytometry gated on CD3+CD8+ TCR+ cells. […] No major difference in immune-checkpoint-inhibitor (ICI) marker expression was observed.
Using Panobinostat as example, phenotypes of T cell products prepared by Panobinostat treatment on Day 0 (activation), Day 1 (transduction), or Day 2 (feeding) were determined.
as §2, §3

transduced T cells [4] = experiment: Exhaustion / inhibitory receptor (ICI) marker expression of T cell products; assay type: cell-based
Procedure: The sustained expression of multiple inhibitory receptors may be the hallmark of exhausted T cells. Common to both CD4+ and CD8+ exhausted T cells may be the surface expression of multiple inhibitory receptors, e.g., 2B4, 4-1BB, CD39, CD69, LAG3, PD-1, TIGIT, and TIM3. Expression of these inhibitory receptors in T cell products prepared by Panobinostat treatment at different time was determined. […] Panobinostat treatment on Day 0 increased % PD-1+ cells in T cell products as compared with other treatments and control.
CD39 may be considered as a marker for exhausted T cells, e.g., CD8+ T cells, in cancer. CD69 is a membrane-bound, type II C-lectin receptor and may be considered as an early marker of lymphocyte activation due to its rapid appearance on the surface of the plasma membrane after stimulation. […] Dasatinib may have little effect on % of terminally differentiated CD39-positive state (CD39+CD69+) and % of CD69+ state in T cell products.
Common to both CD4+ and CD8+ exhausted T cells may be the surface expression of multiple inhibitory receptors including 2B4, 4-1BB, CD39, CD69, LAG3, PD-1, TIGIT, and TIM-3.

UACC257 = experiment: Tumor cell killing by T cell products (Incucyte tumor serial killing assay); assay type: cell-based
Description: as §2
T cell products prepared by activating T cells obtained from three patients (n=3) in the presence of Panobinostat, SAHA+IL-21, or AKTi VIII were compared with regards to tumor killing activity when contacting target cells, e.g., UACC257, which express a report gene encoding red florescent protein (RFP), with E:T=3:1. TCR-positive cells were normalized.
(n=3 healthy donors; TCR normalized T cells:UACC257-iRFP=3:1).

transduced T cells [5] = experiment: Response to Ag exposure (cytokine expression, exhaustion); assay type: cell-based; settings: Acceptable range ≥Control; Table 5 summary grade
Description: as §2

transduced T cells [6] = experiment: Viability of T cell products; parameters: viability of transduced T cells: dose or concentration left out as unconfirmed; settings: for viability of transduced T cells: Day 7, vs controls (no HDACi and DMSO), FIG. 2A
Procedure: as §1

[7] = dasatinib (5 nM) on Day 2 compared with dasatinib (10 nM) on Day 5, FIG. 25A
[8] = dasatinib (10 nM) on Day 2 or Day 5, FIG. 23B
[9] = dasatinib added Day 2 (5 nM) and Day 5 (10 nM) during feeding and expansion, vs untreated control, FIG. 25A
[10] = dasatinib (10 nM) on Day 2 or Day 5, vs untreated control, FIG. 23C

## 3-[1-[[4-(7-phenyl-3H-imidazo[4, 5g]quinoxalin-6-yl)phenyl]methyl]piperidin-4-yl]-1H-benzimidazol-2-one [AKTi VIII]
Transduced T cells [1]; AKTi VIII 250 nM added Day 0 during activation, FIG. 19A, 24A
  fold expansion of T cell products: little effect
Transduced T cells [1]; AKTi-treated cells compared with Panobinostat and SAHA+IL-21 treated cells
  manufacturing metrics and phenotype: relatively better
Transduced T cells [2]; AKTi VIII 250 nM added Day 0 during activation, FIG. 19B, 24B
  % CD8+ TCR+ T cells (transduction efficiency): higher
Transduced T cells [3]; AKTi VIII 250 nM added Day 0 during activation, FIG. 20A
  % of Tcm (CD45RA−CCR7+), Teff (CD45−CCD7−), and TemRA (CD45RA+CCR7-): little effect
Transduced T cells [3]; AKTi VIII 250 nM added Day 0 during activation, vs Panobinostat, SAHA+IL-21 and untreated control, FIG. 20B, 25B
  total number of Tnaive (CD45RA+CCR7+) in T cell products: best total number; also recorded: increased
Transduced T cells [3]; AKTi VIII 250 nM added Day 0 during activation, vs untreated control, FIG. 20A, 25A
  % Tnaive (CD45RA+CCR7+) in T cell products: increased
Transduced T cells [3]; AKTi VIII 250 nM added Day 0 during activation, vs untreated control, FIG. 20C
  expression of Tnaive and Tcm markers (CD27, CD28, CD62L): little effect
Transduced T cells [3]; AKTi VIII 250 nM added Day 0 during activation, vs untreated control, FIG. 25A
  % TemRA in T cell products: decreased
Transduced T cells [3]; Acceptable range: Higher % of Tscm, Tcm, lower % of TemRA, improvements in other memory markers (CD62L, CD28, CD27), Table 5 summary grade
  Memory Phenotype: +/=
Transduced T cells [3]
  Ranking of T cell products from the most Tnaive and the least TemRA to the least Tnaive and the most TemRA: dasatinib (5 nM) on Day 2 >dasatinib (10 nM) on Day 5 >AKTi VIII >Panobinostat
Transduced T cells [4]; Acceptable range ≤% of exhausted cells to control, Table 5 summary grade
  Exhaustion phenotype: =
UACC257; AKTi VIII 250 nM added Day 0 during activation, UACC257-RFP, E:T=3:1, n=3 patients, vs Panobinostat and controls, FIG. 21A
  tumor killing activity: better tumor killing activity
UACC257; AKTi VIII 250 nM added Day 0 during activation, UACC257-RFP, E:T=3:1, n=3 patients, vs Panobinostat and controls, FIG. 21A, listed as AKTi
  tumor killing activity: better tumor-killing activity
Transduced T cells [5]
  Response to Ag exposure (cytokine expression, exhaustion): +/=

## O=C(CCCCCCC(=O)Nc1ccccc1)NO [SAHA, suberanilohydroxamic acid]
Transduced T cells [3]; 50 nM
  CD28+CD62L+ cells (Tcm-like cells): more CD28+CD62L+ cells; also recorded: increased
  % Tnaïve cells: most % Tnaïve cells; also recorded: most naïve cells
  TemRA cells: least TemRA cells

## CCCC(CCC)C(=O)O [valproic acid]
Transduced T cells [6]
  toxicity to T cells: highly toxic
Transduced T cells [1]; 1.5 (unit uncertain)
  fold expansion: reduced fold expansion
Transduced T cells [2]; 1.5 (unit uncertain)
  % CD8+ T cells: reduced % CD8+ T cells

## Nc1ccccc1NC(=O)c1ccc(CNC(=O)OCc2cccnc2)cc1 [Entinostat, entinostat]
Transduced T cells [6]
  toxicity to T cells: highly toxic
  viability of transduced T cells: reduced T cell viability
Transduced T cells [1]; 2 (unit uncertain)
  fold expansion: reduced fold expansion
Transduced T cells [2]; 2 (unit uncertain)
  % CD8+ T cells: reduced % CD8+ T cells
  % CD8+ TCR+ cells (transduction efficiency): reduced % CD8+ TCR+ cells

## O=C(CCCCCCNC(=O)c1cnc(N(c2ccccc2)c2ccccc2Cl)nc1)NO [ACY-241]
Transduced T cells [3]; 100 nM
  CD28+CD62L+ cells (Tcm-like cells): more CD28+CD62L+ cells; also recorded: increased
  % Tnaïve cells: most % Tnaïve cells; also recorded: most naïve cells
  TemRA cells: least TemRA cells

## CCCC(=O)[O-].[Na+] [Sodium butyrate]
Transduced T cells [6]
  viability of transduced T cells: reduced T cell viability
Transduced T cells [6]; summary of Example 2
  toxicity to T cells: highly toxic
Transduced T cells [1]; 2 (unit uncertain)
  fold expansion: reduced fold expansion
Transduced T cells [2]; 2 (unit uncertain)
  % CD8+ T cells: reduced % CD8+ T cells
  % CD8+ TCR+ cells (transduction efficiency): reduced % CD8+ TCR+ cells

## Cc1nc(Nc2ncc(C(=O)Nc3c(C)cccc3Cl)s2)cc(N2CCN(CCO)CC2)n1 [Dasatinib, dasatinib]
Transduced T cells [1]; Acceptable range ≥Control, Table 5 summary grade
  Manufacturing metrics (expansion, viability, yield): =
Transduced T cells [1]; dasatinib added Day 2 (5 nM) and Day 5 (10 nM) during feeding and expansion, FIG. 24A
  fold expansion of T cell products: little effect
Transduced T cells [1]; dasatinib on Day 2 (10 nM or 100 nM) or Day 5 (10 nM or 100 nM), FIG. 22A
  fold expansion of T cell products: little effect
Transduced T cells [2]; dasatinib added Day 2 (5 nM) and Day 5 (10 nM) during feeding and expansion, FIG. 24B
  % CD8+ TCR+ T cells (transduction efficiency): higher
Transduced T cells [2]; dasatinib added Day 2 (5 nM) and Day 5 (10 nM) during feeding and expansion, FIG. 24C
  total number of T cell products with CD8+ TCR+ T cells: little effect
Transduced T cells [2]; dasatinib on Day 2 (10 nM or 100 nM) or Day 5 (10 nM or 100 nM), FIG. 22B
  % CD8+ TCR+ T cells (transduction efficiency): higher
Transduced T cells [2]; expansion in the presence of dasatinib, FIG. 22C
  total number of T cell products with CD8+ TCR+ T cells: little effect
Transduced T cells [3]; Dasatinib-treated cells vs untreated cells
  phenotype: Better Phenotype
Transduced T cells [3]
  Ranking of T cell products from the most Tnaive and the least TemRA to the least Tnaive and the most TemRA: dasatinib (5 nM) on Day 2 >dasatinib (10 nM) on Day 5 >AKTi VIII >Panobinostat
Transduced T cells [3]; [7]
  % TemRA in T cell products: less
  % Tnaive in T cell products: more
Transduced T cells [3]; dasatinib (10 nM) on Day 2 or Day 5, FIG. 23A
  expression of CD27: Little effect
Transduced T cells [3]; [8]
  % Tnaive in T cell products: less
  % of differentiated TemRA: less
Transduced T cells [3]; dasatinib (10 nM) on Day 2 or Day 5, vs Panobinostat, SAHA+IL-21, AKTi VIII or untreated control, FIG. 26A
  % CD62L+ and % CD28+CD62L+ cells in T cell products: increased
Transduced T cells [3]; dasatinib (10 nM) on Day 2 or Day 5, vs Panobinostat, SAHA+IL-21, AKTi VIII or untreated control, FIG. 26B
  MFI of CD27 and CD62L in T cell products: increased
Transduced T cells [3]; dasatinib (10 nM) on Day 2 or Day 5, vs untreated control, FIG. 23A
  expression of Tnaive and Tcm markers CD28 and CD62L: increased
Transduced T cells [3]; [9]
  % TemRA in T cell products: decreased
  % Tnaive in T cell products: increased
Transduced T cells [3]; dasatinib added Day 2 (5 nM) and Day 5 (10 nM) during feeding and expansion, vs untreated control, FIG. 25B
  number of Tnaive in T cell products: increased
Transduced T cells [4]; dasatinib (10 nM) on Day 2 or Day 5, vs Panobinostat or AKTi VIII or untreated control, FIG. 27A
  % 2B4+, % Cd69+, and % TIM-3+ cells in T cell products: decreased
Transduced T cells [4]; dasatinib (10 nM) on Day 2 or Day 5, vs Panobinostat or AKTi VIII or untreated control, FIG. 27B
  MFI of 4-1BB and TIM-3 in T cell products: decreased
Transduced T cells [4]; [10]
  % of T cell products with differentiated CD39+ state (CD39+): slightly higher
  % of T cell products with memory-progenitor CD39− negative stem-like phenotype (CD39−CD69−): slightly less
Transduced T cells [4]; dasatinib, FIG. 23C
  % of terminally differentiated CD39-positive state (CD39+CD69+) and % of CD69+ state: little effect
UACC257; expansion in the presence of dasatinib, TCR normalized T cells:UACC257-RFP=3:1, n=3 healthy donors, vs Panobinostat or AKTi VIII and controls, FIG. 28A, 29A-C
  tumor killing activity: significantly better tumor killing activity
